In data set [1] the target is T1, human SSTR 5 (Homo sapiens, UniProt P35346).
T1 construct: expressed in transfected cells; host or cells: CHO-K1 cells (membrane fraction)
The data set can be described thus: Radiolabeled ligand binding assay, human SSTR subtype selectivity. The conditions noted are these: SSTR5 versus SSTR1-4, 1 μM. The protocol:
The selectivity of test compounds for human SSTR subtypes was investigated by radiolabeled ligand binding assay. The membrane fraction of CHO-K1 cells expressing human SSTR1-5 was suspended in am assay buffer (25 mM HEPES (pH 7.4), 5 mM MgCl2, 1 mM CaCl2), 10 μg/mL saponin, 0.5% fatty-acid free BSA) and incubated for 1 hr in the presence of 1 μM test compound 1 and [^125I]Tyr^11-somatostatin 14 (Perkin Elmer). Thereafter, the solution containing the membrane fraction was transferred onto a filter plate, and after washing the filter six times with a wash buffer (25 mM HEPES, 5 mM MgCl2, 1 mM CaCl2), 50 μL of Microscint 20 (Packard) was added, and the radioactivity was measured using a TopCount (Perkin Elmer). The results of competitive activity of the test compound against the binding of the human SSTR subtypes with the labeled ligands are shown in Table 2.

For data set [2], the system named is growth hormone secretion. Description: Growth hormone secretion enhancing action by single dose administration in human (Phase 1 study). The data set is classed as in vivo. On the procedure:
(§1) The examples in this section show the measurement results of blood anterior pituitary hormone concentrations using blood samples from a dose escalation study targeting healthy Japanese adult men, from A Randomized, Double-Blind, Placebo-Controlled, Phase 1 Study (jRCT2051210027) targeting healthy adults, which was conducted to examine the safety and tolerability, pharmacokinetics, and pharmacodynamic action of a single administration of test compound 1.
In a randomized, double-blind, placebo-controlled, parallel-group comparison, dose-escalation study consisting of 7 cohorts, a single dose of test compound 1 (1, 3, 10, 20, 40, 80 and 160 mg) or placebo was orally administered under fasting conditions. Eight test subjects (6 in the active drug group and 2 in the placebo group) participated in each cohort. The concomitant use of all medications was prohibited from 28 days before hospitalization until discharge. […]
The concentration of anterior pituitary hormone was measured using blood from the placebo administration group of all cohorts and the test subjects who received administration of 1 mg or 10 mg of test compound 1, at 0.5 hr before administration and 2, 4, 6, 8, and 10 hr after administration. […]

Data set [3] has as its system secretion of other anterior pituitary hormones. The data set can be described thus: Blood concentrations of other anterior pituitary hormones after single dose administration in human (Phase 1 study). The data set is classed as in vivo. The conditions noted are these: healthy Japanese adult men; single oral dose 1 mg or 10 mg. The protocol: as §1
In a randomized, double-blind, placebo-controlled, parallel-group comparison, dose-escalation study consisting of 7 cohorts, a single dose of test compound 1 (1, 3, 10, 20, 40, 80 and 160 mg) or placebo was orally administered under fasting conditions. Eight test subjects (6 in the active drug group and 2 in the placebo group) participated in each cohort. The concomitant use of all medications was prohibited from 28 days before hospitalization until discharge.
The test subjects were inspected and examined within 28-2 days and 1 day before administration of test compound 1, and eligibility was confirmed based on the above-mentioned inclusion criteria and exclusion criteria. […] They were fasted for 10 hr before administration and 4 hr after administration until lunch, and took lunch at 13:[…]. The blood was collected 0.5 hr before and 1, 2, 4, 6, 8, and 10 hr after administration of test compound 1.
The concentration of anterior pituitary hormone was measured using blood from the placebo administration group of all cohorts and the test subjects who received administration of 1 mg or 10 mg of test compound 1, at 0.5 hr before administration and 2, 4, 6, 8, and 10 hr after administration. The concentrations of growth hormone, follicle-stimulating hormone, luteinizing hormone, thyroid-stimulating hormone, adrenocorticotropic hormone, and prolactin in blood were measured using the Human Growth Hormone Quantikine ELISA Kit (manufactured by R&D Systems), Follicle-Stimulating Hormone (Human) ELISA Kit (manufactured by Cayman Chemical), Luteinizing Hormome (Human) ELISA Kit (manufactured by Cayman Chemical), U-TSH ELISA (manufactured by BIOCHECK), ACTH ELISA Kit (manufactured by MB Biosciences GmbH), and Human Prolactin Quantikine ELISA Kit (manufactured by R&D Systems) according to the protocol described in the package insert of each kit.
The time course changes in the blood anterior pituitary hormone concentrations after oral administration of placebo (n=14) or test compound 1 at doses of 1 mg and 10 mg (n=6 for each) are shown in FIG. 1-6.

T1 sequence (P35346 whole entry): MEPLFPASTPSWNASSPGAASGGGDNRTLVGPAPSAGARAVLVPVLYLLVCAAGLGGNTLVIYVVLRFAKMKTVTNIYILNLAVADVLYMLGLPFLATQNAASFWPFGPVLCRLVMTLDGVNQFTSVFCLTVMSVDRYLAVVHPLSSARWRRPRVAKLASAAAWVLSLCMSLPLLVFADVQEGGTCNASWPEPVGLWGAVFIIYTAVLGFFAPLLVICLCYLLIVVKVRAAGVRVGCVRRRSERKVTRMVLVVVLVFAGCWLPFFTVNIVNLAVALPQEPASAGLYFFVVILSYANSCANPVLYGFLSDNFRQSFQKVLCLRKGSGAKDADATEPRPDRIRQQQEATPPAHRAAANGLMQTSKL

With `CCCc1nc2c(cc1C(=O)O)C(=O)N(C1CCN(Cc3cc(C4CC4)c(-c4ccc(F)cc4)cc3OCC)CC1)CC2` [test compound 1, 6-(1-((2-cyclopropyl-5-ethoxy-4′-fluorobiphenyl-4-yl)methyl)piperidin-4-yl)-5-oxo-2-propyl-5,6,7,8-tetrahydro-1,6-naphthyridine-3-carboxylic acid], the “selectivity of binding among the human SSTR subtypes” value in data set [1] is given as “selectively binds to SSTR5”. The “growth hormone secretion (blood growth hormone concentration)” value in data set [2] (healthy Japanese adult men, single oral dose 1 mg or 10 mg, fasting, 2-10 hr after administration) is reported as “clearly enhance growth hormone secretion”. In data set [2] (human, compared with literature values for patients with pediatric growth hormone deficiency), the “increase in blood growth hormone concentration compared with growth hormone replacement therapy” value was “corresponds to the blood growth hormone concentration obtained by growth hormone replacement therapy”. For the same compound, in data set [3], the “secretion of adrenocorticotropic hormone (blood concentration)” value was “did not substantially affect”, the “secretion of follicle-stimulating hormone (blood concentration)” value is on record as “did not substantially affect”, the “secretion of luteinizing hormone (blood concentration)” value was “did not substantially affect” and the “secretion of prolactin (blood concentration)” value is on record as “did not substantially affect”. The “secretion of thyroid-stimulating hormone (blood concentration)” value in data set [3] was “did not substantially affect”.

The record behind these values is patent US20260232648A1, “GROWTH HORMONE SECRETION PROMOTER” (SCOHIA PHARMA, INC., priority 2023, published 2026).
